Results on 79 compounds are retold here after the METLIN SMRT retention time set (Domingo-Almenara et al. 2019).

A short description of this data set: gradient 5% acetonitrile 3 min, to 50% in 2 min, to 85% in 15 min, held 3 min, 100 µL/min. Conditions: column: Zorbax Extend-C18 2.1 x 50 mm; eluents: water / acetonitrile, 0.1% formic acid. Summed up: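 Data were gathered over 3 months by HPLC coupled to a quadrupole time-of-flight mass spectrometer, operated in positive and negative ionization mode. Mixtures of ~100 pure standards ran on a Zorbax Extend-C18 column (2.1 × 50 mm, 1.8 μm) at 100 μL/min, with water and acetonitrile each containing 0.1% formic acid and dead and dwell volumes of 40 μL and 900 μL. Retention time was read from adduct peaks picked by computer and checked manually.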
As for `Cn1cc(CCN2CCC(C(=O)NCc3cccc(F)c3)CC2)c2cccnc21`, the RP-LC retention time came out at 599 s.
As for `COCCNc1nc(-c2ccc(C)cc2)nnc1C`, the RP-LC retention time was 608 s.
The result for `COc1ccc2nc(C(=O)NCc3ccc(Br)cc3)cn2n1` reads 879 s.
Under `Cc1nc(C)c(-c2nnc(NC(=O)c3ccno3)o2)s1` stands 603 s; under `CCOc1ccc(CNC(=O)c2cc(-c3ccncc3)cn2C)cc1`, 644 s; under `O=C(CCc1nnn2c1CN(C(=O)NC1CCCC1)CC2)N1CCOCC1`, 615 s.
Under `CC1CCN(C(=O)CC2CCN(S(=O)(=O)c3ccc(Cl)s3)CC2)CC1` stands 1040 s.
`CCc1onc(C)c1C1CCCN1C(=O)c1ccc(OC)c(OC)c1` (centres undefined): the RP-LC retention time was found to be 714 s.
Under `Cc1cccc(N2CCN(c3cc(C)nc4c(-c5ccccc5)cnn34)CC2)n1` stands 738 s.
The result for `Cc1nnc(CNC(=O)CCn2nnc3ccccc3c2=O)o1` reads 566 s; that for `Cc1cc(NC(=O)c2cnc(-c3ccccc3)nc2-c2ccncc2)ccc1Br`, 994 s.
Under `O=C(c1ccc(-c2ccc3c(c2)CCN3S(=O)(=O)c2ccccc2F)cc1)N1CCOCC1` stands 899 s; under `CCn1nc(C)c(CNC(=O)Nc2cc(OC)c(OC)c(OC)c2)c1C`, 615 s.
For `CCOc1ccc(NC(=O)Cn2c(=O)n(-c3cccc(C)c3)c(=O)c3c2cc(C)n3C)cc1`, the RP-LC retention time stood at 864 s.
The result for `COc1ccc(C(C)NC(=O)C2CCCN(c3cnc4nccnc4c3)C2)cc1OC` (centres undefined) reads 663 s; that for `Cc1cc(Cl)ccc1S(=O)(=O)N1CC(c2nc(Cc3ccccc3)no2)C1`, 1140 s.
For the compound `CCn1nnc2ccc(-c3noc(-c4cccc(NC(C)=O)c4)n3)cc21`, the RP-LC retention time is 819 s.
`CCn1cc(-c2nc(C(=O)N3CCN(c4ccccc4F)CC3)cs2)c2cccnc21` showed an RP-LC retention time of 1040 s.
The result for `COC(=O)c1cnc2nc(C)ccc2c1Nc1cc(F)ccc1C` reads 689 s.
With `O=C(NCCN1CCCC1)c1nc(Nc2ccc(F)cc2)c2ccccc2n1`, the RP-LC retention time came to 689 s.
Take `O=C(Nc1sc2c(c1C(c1ccncc1)N1CCN(c3ccccn3)CC1)CCCC2)c1ccco1` (centres undefined): the RP-LC retention time was determined as 630 s.
The result for `CN(C)c1cccc(C(=O)N2CCN(c3cc(-c4ccccc4)[nH]n3)CC2)c1` reads 690 s; that for `CCOc1cccc(-c2noc(-c3nnn4c3COC(c3ccc(F)cc3)C4)n2)c1` (centres undefined), 1190 s; that for `COc1ccc(Cl)cc1NC(=O)c1n[nH]c2ccccc12`, 1010 s.
The result for `CC(C)(C)NS(=O)(=O)c1cncc(-c2cc(F)c3nc(N)nn3c2)c1` reads 750 s; that for `CC1CCN(c2cc(-n3cnc(C(=O)N4CCC5(CC4)OCCO5)c3)ncn2)CC1`, 834 s.
Regarding `O=C(COc1ccccc1F)NCC1CCN(S(=O)(=O)C2CC2)CC1`, the RP-LC retention time came to 712 s.
Under `CC(C)Cn1c(=O)c2sccc2n2c(CCC(=O)NCc3cc(F)ccc3F)nnc12` stands 622 s; under `O=c1c(=O)n(-c2cccc(Cl)c2)ccn1Cc1nc(-c2cccc(F)c2)no1`, 895 s; under `CCOc1nc2ccccc2nc1N1CCCC(C(=O)NCc2cccc(C)c2)C1` (centres undefined), 1170 s.
Under `O=C(Nc1ccc(F)cc1)C1CC(=O)N(CCc2c[nH]c3ccc(F)cc23)C1` (centres undefined) stands 785 s; under `Cc1ccc(OCc2nc(C3CCNC3)no2)cc1` (centres undefined), 641 s; under `COc1ccc(Br)c(CC2C(=O)Nc3ccccc32)c1` (centres undefined), 944 s.
Under `COc1ccc(NC(=O)C2c3ccccc3C(=O)N3CCc4cc(OC)c(OC)cc4C23)c(OC)c1` (centres undefined) stands 814 s; under `O=C(c1ccsc1)N1CCN(C(=O)c2cc(-c3ccccn3)n[nH]2)CC1`, 614 s; under `Cc1ccc(C)c(NC(=O)C2CC(=O)N(c3n[nH]c4cccc(F)c34)C2)c1` (centres undefined), 758 s.
`CN1C(=O)c2ccccc2Oc2ccc(C(=O)NCCCc3ccccc3)cc21` showed an RP-LC retention time of 964 s.
Under `CC(=O)c1ccc(NC(=O)c2cnn3c4c(cnc23)CCCCCC4)cc1` stands 1060 s.
`CC(C)n1cnc(S(=O)(=O)N2CCC(C(=O)Nc3ccc(Cl)cc3)CC2)c1` displayed an RP-LC retention time of 824 s.
Under `CCOc1ccc(-n2cc(C(=O)OC(C)C)c3ccccc3c2=O)cc1` stands 1220 s; under `Cc1noc([C@@H]2CN(Cc3cccc(Cl)c3)C[C@H]2CO)n1`, 603 s; under `CCC(C)NS(=O)(=O)c1ccccc1-c1nc(-c2ccc(C)cc2)no1` (centres undefined), 1270 s.
The result for `O=C(Cc1csc(NC(=O)c2ccc(=O)[nH]c2)n1)NCc1ccccc1Cl` reads 616 s.
The result for `Cc1ccc(CC(=O)NC(CC(C)C)C(=O)Nc2nc3ccccc3[nH]2)cc1` (centres undefined) reads 786 s; that for `CC1CCCCN1CCNC(=O)c1nnc(-c2ccc(S(=O)(=O)N(C)C)cc2)o1` (centres undefined), 620 s; that for `Cc1ccc2c(c1)N(Cc1nc(-c3ccc(OC(F)(F)F)cc3)no1)C(=O)CO2`, 1210 s.
`O=C(NC1CCCc2ccccc21)c1ccc(-n2nc(N3CCCC3)ccc2=O)cc1` (centres undefined) yielded an RP-LC retention time of 920 s.
Under `CCn1nccc1C(=O)NCCn1c(=O)n(Cc2ccccc2)c2cccnc21` stands 740 s.
On to `O=c1n(Cc2ccc(F)cc2)nc2ccc(S(=O)(=O)N3CCCC3)cn12`, for which the RP-LC retention time was 855 s.
The result for `Cc1ccc(-c2nc3ccc(C)cn3c2Nc2ccc3c(c2)OCO3)cc1` reads 725 s; that for `CC(C)NC(=O)C1CCCN(S(=O)(=O)c2cc(-c3noc(C4CCCC4)n3)cs2)C1` (centres undefined), 1050 s.
In turn, `Cc1ccc(-c2nc3cnccn3c2NCCC(=O)NC2CC2)cc1` showed an RP-LC retention time of 616 s.
The result for `CCOc1ccccc1NC(=O)Cn1cnc2nc(N3CCCC(C(=O)NC)C3)sc2c1=O` (centres undefined) reads 667 s; that for `CNC(=O)C1CCCN(c2nc3ncn(CC(=O)NCc4ccc(OC)cc4)c(=O)c3s2)C1` (centres undefined), 632 s.
The result for `COc1ccc(N2CCN(C(=O)CN3C(=O)NC4(CCCCC4)C3=O)CC2)cc1` reads 694 s; that for `O=C(CN1CCN(Cc2ccccc2)C(=O)C1=O)N1CCN(c2ccccc2F)CC1`, 752 s; that for `Cc1ccc(-c2cn3c(n2)N(C(=O)c2sc(C)nc2C)CCC3)cc1`, 642 s.
Turning to `CN(C)CC1CN(C(=O)c2c[nH]c3ccccc23)CC12CCOCC2` (centres undefined), the RP-LC retention time came to 725 s.
Consider `O=C(CCn1nnc2cc(-c3noc(-c4ccc(Br)o4)n3)ccc21)N1CCOCC1`, for which the RP-LC retention time was 822 s.
Under `Cc1ccccc1S(=O)(=O)N1CCC(C(=O)NCc2csc(-c3cccs3)n2)CC1` stands 898 s; under `CCN(Cc1ccccc1)C(=O)CS(=O)Cc1cnn(-c2ccccc2)c1-n1cccc1` (centres undefined), 825 s; under `Cn1nccc1-c1cccc(-c2noc(C3CC(=O)N(c4cccc(Cl)c4)C3)n2)c1` (centres undefined), 978 s.
In turn, `Cc1ccccc1NC(=O)Cn1c(C(F)(F)F)nc2cc3c(cc21)OCCO3` came in with an RP-LC retention time of 857 s.
The result for `CCC(C)NC(=O)c1nc2cc(C)c(C)cc2n(C)c1=O` (centres undefined) reads 798 s.
For `CC(C)NC(=O)C1CCC(=O)N1C1CCN(C(=O)C2CCCCC2)CC1` (centres undefined), the RP-LC retention time turned out to be 591 s.
The result for `O=C(CCCn1c(=O)c2cccn2c2ccc(F)cc21)NCCCN1CCOCC1` reads 603 s.
Regarding `CNC(=O)c1noc([C@@H]2CC(F)(F)CN2C(=O)CCOC)n1`, the RP-LC retention time amounted to 607 s.
The result for `CCCNC(=O)N1CCC2(CC1)C(=O)N(C)c1ccccc12` reads 708 s.
The result for `CN1C(=O)CCc2cc(NC(=O)Cc3cccs3)ccc21` reads 702 s; that for `CCOC(=O)C(=O)Nc1ccc(-c2nc(-c3cc(C)ccc3C)co2)cc1`, 1180 s.
The result for `O=C1C(O)=C(S(=O)(=O)c2ccccc2)C(c2ccccc2)N1Cc1ccccc1` (centres undefined) reads 947 s; that for `CN(C)S(=O)(=O)c1ccc2nc(NC(=O)c3nc4ccccc4s3)sc2c1`, 948 s.
`O=C(NCCN1CCCCC1)c1ccc(-c2ccc(N3CCSCC3)nc2)cc1` showed an RP-LC retention time of 591 s.
Under `O=c1ccc(-c2cccc(Cl)c2)nn1CCc1nc(-c2ccc(F)cc2)no1` stands 1060 s; under `Cc1ccccc1CNC(=O)CN1C(=O)CCCc2cc(S(=O)(=O)N3CCCCC3)ccc21`, 911 s.
With `CSc1ccc(NC(=O)N2CCN(c3ccc(C(F)(F)F)cn3)CC2)cc1`, the RP-LC retention time is 1010 s.
In the case of `CCOC(=O)c1c(S(=O)(=O)N2CCC(C(=O)N3CCOCC3)CC2)c(C)n(C)c1C`, the RP-LC retention time is 674 s.
The result for `COc1cccc(-c2noc(Cn3c(=O)n(-c4ccc(F)cc4)c(=O)c4sccc43)n2)c1` reads 952 s.
Regarding `Cc1ccc(-c2ncc(NC(=O)CC(C)C)cn2)cc1`, the RP-LC retention time is 961 s.
